Assay results published in patent US7250409B2, “Ningalin B analogs employable for reversing multidrug resistance” (The Scripps Research Institute, priority 2000, dated 2007).
“Also recorded” adds a separate entry of the source.

Key:
[1] = system: HCT116/VM46; assay: Reversal of multidrug resistance: resensitizing HCT116/VM46 to vinblastine and doxorubicin; format: cell-based, human; conditions: for resensitization of HCT116/VM46 compared with verapamil: vinblastine and doxorubicin
[2] = system: HCT116; assay: Cytotoxic activity against wild-type HCT116; format: cell-based, human
Description: (§1) Cytotoxic Activity and Reversal of Multidrug Resistance. […] (Quesada, A. R.; et al. Br. J. Cancer 1996, 74, 677.) With exception of ningalin A, (Ningalin A, lamellarin O, lukianol A, and permethyl storniamide A: Boger, D. L.; et al. J. Am. Chem. Soc. 1999, 121, 54.) the biological evaluation of the ningalin family has not been explored. Consequently, ningalin B and a number of structurally related synthetic intermediates were tested in a L1210 cytotoxic assay, and the results are summarized in FIGS. 6 and 10. […] (Ningalin A, lamellarin O, lukianol A, and permethyl storniamide A: Boger, D. L.; et al. J. Am. Chem. Soc. 1999, 121, 54.)
(Quesada, A. R.; et al. Br. J. Cancer 1996, 74, 677.) P-gp is a 170 kDa plasma membrane glycoprotein encoded in humans by the MDR1 gene which exports drugs out of mammalian cells, lowering their intracellular concentration. (Patel, N. H.; et al. Invest. New Drugs 1994, 12, 1. Gottesman, M. M.; et al. Annu. Rev. Biochem. 1993, 62, 385.) Therefore, 7-14 were also tested against a wild-type human colon cancer cell line (HCT116) and two resistant HCT116 cell lines. The first resistant cell line (HCT116/VM46) embodies the MDR phenotype and overexpresses P-glycoprotein while the second cell line (HCT116/VP35) derives its resistance through underexpression of topoisomerase II. The examination of the latter cell line along with the wild-type HCT116 and their comparison with HCT116VM46 allows an accurate assessment of the MDR sensitivity as well as an assessment of one potential therapeutic target.

[3] = system: L1210; assay: L1210 cytotoxic assay; format: cell-based
Source text: FIG. 6 illustrates a table with a comparison of the cytotoxic activity of ningalin B and some analogs with some commonly used compounds against three different cell lines.
as §1

[4] = molecular target: T1, Pgp-170 (Homo sapiens, UniProt P08183); assay: Inhibition of dye efflux (rhodamine 123) from HCT116/VM46; format: cell-based; conditions: 30 min incubation in rhodamine 123 in phosphate buffer solution
T1 construct: The first resistant cell line (HCT116/VM46) embodies the MDR phenotype and overexpresses P-glycoprotein; endogenous in cells; host or cells: HCT116/VM46 (drug-resistant human colon cancer cell line)
Description: FIG. 8 illustrates the inhibition of dye efflux (rhodamine 123) from the HCT116/VM46 cell line. Accumulation of rhodamine 123 in the HCT116/VM46 cell line after 30 min incubation in […] rhodamine in phosphate buffer solution (Quesada, A. R.; et al., Br. J. Cancer 1996, 74, 677).
Fundamentally more important, many of the agents were found capable of reversing MDR at noncytotoxic concentrations, resensitizing HCT116/VM46 to vinblastine and doxorubicin (FIGS. 7 and 11).

[5] = cytotoxic activity relative to ningalin B

T1 sequence (P08183 whole entry): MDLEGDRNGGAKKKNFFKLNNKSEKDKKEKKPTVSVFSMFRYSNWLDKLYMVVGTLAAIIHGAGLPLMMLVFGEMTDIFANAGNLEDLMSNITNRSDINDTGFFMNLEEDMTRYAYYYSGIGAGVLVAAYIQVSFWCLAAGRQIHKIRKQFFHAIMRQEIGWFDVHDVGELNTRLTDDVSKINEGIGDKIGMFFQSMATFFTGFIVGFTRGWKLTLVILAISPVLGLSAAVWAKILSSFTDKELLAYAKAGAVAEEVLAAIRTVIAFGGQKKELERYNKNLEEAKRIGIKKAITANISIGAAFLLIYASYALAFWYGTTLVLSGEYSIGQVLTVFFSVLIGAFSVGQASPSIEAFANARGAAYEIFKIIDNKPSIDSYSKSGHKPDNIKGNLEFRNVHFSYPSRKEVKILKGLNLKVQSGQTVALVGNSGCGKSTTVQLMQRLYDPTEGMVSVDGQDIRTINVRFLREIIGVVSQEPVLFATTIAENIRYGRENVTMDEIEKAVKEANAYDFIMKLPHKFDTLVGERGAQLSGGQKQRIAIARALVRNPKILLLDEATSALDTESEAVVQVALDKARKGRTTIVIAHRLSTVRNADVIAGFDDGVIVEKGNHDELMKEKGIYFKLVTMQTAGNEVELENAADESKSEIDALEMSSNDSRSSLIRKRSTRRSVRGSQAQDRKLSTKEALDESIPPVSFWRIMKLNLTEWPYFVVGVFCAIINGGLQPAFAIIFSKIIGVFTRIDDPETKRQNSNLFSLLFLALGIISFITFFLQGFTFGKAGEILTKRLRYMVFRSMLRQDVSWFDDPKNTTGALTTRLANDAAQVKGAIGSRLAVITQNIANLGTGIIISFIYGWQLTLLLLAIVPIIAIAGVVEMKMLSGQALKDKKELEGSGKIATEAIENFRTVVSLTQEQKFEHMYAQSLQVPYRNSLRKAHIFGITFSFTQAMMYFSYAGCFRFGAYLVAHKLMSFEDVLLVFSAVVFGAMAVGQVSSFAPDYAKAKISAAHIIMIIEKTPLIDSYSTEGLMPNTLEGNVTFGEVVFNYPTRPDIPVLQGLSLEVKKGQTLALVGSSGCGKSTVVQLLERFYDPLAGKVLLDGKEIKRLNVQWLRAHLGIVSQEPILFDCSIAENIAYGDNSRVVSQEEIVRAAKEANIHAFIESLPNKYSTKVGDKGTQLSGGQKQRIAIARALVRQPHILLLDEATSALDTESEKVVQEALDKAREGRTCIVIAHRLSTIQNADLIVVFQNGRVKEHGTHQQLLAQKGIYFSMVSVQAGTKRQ

Compound	MDR reversal in HCT116/VM46 ([1]; agent at 1 μM)	ability to resensitize HCT116/VM46 to vinblastine and doxorubicin ([1]; agent at 1 μM)	resensitization of HCT116/VM46 compared with verapamil ([1]; agent at 1 μM)	MDR reversal in HCT116/VM46 ([1]; agent at 7.5 μM)	MDR reversal, resensitizing HCT116/VM46 to vinblastine and doxorubicin ([1]; concentration not given)	cytotoxic activity against HCT116 ([2]; wild-type human colon cancer cell line HCT116)	cytotoxic activity against L1210 ([3]; L1210 cell line)	inherent cytotoxic activity (cell line not given) [2]	dye efflux (rhodamine 123) from HCT116/VM46 [4]	sensitivity of HCT116/VM46 towards vinblastine in presence of agent ([1]; concentration not given, vinblastine)	fold less active against HCT116 than ningalin B [2, 5]	fold less active against L1210 than ningalin B [3, 5]
COC(=O)c1c(-c2ccc(OC)c(OC)c2)c2c3cc(OC)c(OC)cc3oc(=O)c2n1CCc1ccc(OC)c(OC)c1 [compound 11, Methyl 7,8-Dimethoxy-3-(2-(3,4-dimethoxyphenyl)ethyl)-1-(3,4-dimethoxyphenyl)-[1]-benzopyrano[3,4-b]pyrrol-4(3B)-one-2-carboxylate]	complete MDR reversal	able to resensitize	more effectively than verapamil	hypersensitive to vinblastine	potently reverse MDR	–	–	–	–	–	–	–
O=c1oc2cc(O)c(O)cc2c2c(-c3ccc(O)c(O)c3)cn(CCc3ccc(O)c(O)c3)c12 [ningalin B, Ningalin B]	–	–	–	–	not	only moderately active	only moderately active	–	–	–	–	–
COCOc1cc(OC)c(OC)cc1-c1c(-c2ccc(OC)c(OC)c2)c(C(=O)OC)n(CCc2ccc(OC)c(OC)c2)c1C(=O)OC [compound 10, Dimethyl 3-(4,5-Dimethoxy-2-(methoxymethoxy)phenyl)-4-(3,4-dimethoxyphenyl)-1-[2-(3,4-dimethoxyphenyl)ethyl]pyrrole-2,5-dicarboxylate]	–	able to resensitize	more effectively than verapamil	complete MDR reversal	potently reverse MDR	–	–	lacking inherent cytotoxic activity	–	–	–	–
COc1ccc(-c2c3n(c4c(=O)oc5cc(OC)c(OC)cc5c24)CCc2cc(OC)c(OC)cc2C3=O)cc1OC [compound 14, 9,10-Dihydro-12,13-dimethoxy-1-(3′,4′-dimethoxyphenyl)-3,4-dimethoxy-[4,3-d]-[1]-benzopyrano-15H-benzazepino[3,2-a]-[3]-pyrrol-7,15(18H)-dione]	hypersensitivity of HCT116/VM46 to vinblastine	able to resensitize	more effectively than verapamil	–	potently reverse MDR; also recorded: most potent MDR reversal agent identified in this series	–	–	lacking inherent cytotoxic activity	inhibited dye efflux	hypersensitivity towards vinblastine	–	–
COc1ccc(CCn2cc(-c3ccc(OC)c(OC)c3)c3c4cc(OC)c(OC)cc4oc(=O)c32)cc1OC [compound 13, Hexamethyl Ningalin B]	complete MDR reversal	able to resensitize	more effectively than verapamil	hypersensitive to vinblastine	potently reverse MDR	–	–	–	–	–	2.5 fold	5 fold
COc1ccc(CCn2c(C(=O)N(C)C)c(-c3ccc(OC)c(OC)c3)c3c4cc(OC)c(OC)cc4oc(=O)c32)cc1OC [compound 15, N,N-Dimethyl 7,8-Dimethoxy-3-(2-(3,4-dimethoxyphenyl)ethyl)-1-(3,4-dimethoxyphenyl)-[1]-benzopyrano[3,4-b]pyrrol-4(3H)-one-2-carboxamide]	–	–	–	–	potently reverse MDR	–	–	lacking inherent cytotoxic activity	–	–	–	–
COc1ccc(CCN(C)CCCC(C#N)(c2ccc(OC)c(OC)c2)C(C)C)cc1OC (stereo not drawn) [verapamil, reference compound]	–	–	–	complete reversal	–	–	–	–	–	–	–	–
